The structures appear in SMILES notation.

Usually Kb stands for the equilibrium dissociation constant of an antagonist, usually derived from a functional assay. A higher Kb goes with lower antagonist affinity.

The experiment addresses T1, human orexin-2 (hOX2) receptor (Homo sapiens, UniProt O43614).
T1 construct: expressed in transfected cells
T1 sequence (O43614 1-444): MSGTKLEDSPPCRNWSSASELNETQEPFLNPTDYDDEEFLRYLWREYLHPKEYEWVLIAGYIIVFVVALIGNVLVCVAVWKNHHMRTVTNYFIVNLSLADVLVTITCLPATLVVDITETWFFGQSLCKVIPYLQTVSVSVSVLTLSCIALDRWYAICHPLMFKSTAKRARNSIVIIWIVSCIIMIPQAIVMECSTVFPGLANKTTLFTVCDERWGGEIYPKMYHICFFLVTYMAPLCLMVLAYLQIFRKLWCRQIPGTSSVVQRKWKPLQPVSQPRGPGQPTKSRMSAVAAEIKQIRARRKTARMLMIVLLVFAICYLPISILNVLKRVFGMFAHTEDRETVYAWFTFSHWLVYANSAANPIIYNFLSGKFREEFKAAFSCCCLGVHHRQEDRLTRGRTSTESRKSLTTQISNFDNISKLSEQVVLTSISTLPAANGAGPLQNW
In words: Intracellular Ca2+ mobilization assay (FLIPR), CHO(dHFr-) cells expressing hOX2, orexin-A as agonist. The class given is cell-based. As to conditions: antagonist Kb=IC50/(1+[A]/EC50); orexin-A at EC80; CHO(dHFr-)-OX2R cells; antagonist applied 25 min before agonist. The protocol: Intracellular Ca^2+ Mobilization Assay
The Chinese Hamster Ovary (dHFr-) mutant cell line stably expressing human orexin-1 (hOX1) or human orexin-2 (hOX2) receptors were maintained in Dulbecco's Modified Eagle Medium (1×) with GlutaMax™1, 4500 mg/L D-Glucose and Sodium Pyruvate (Catalog No. 31966-021, Invitrogen, Carlsbad, Calif.), 5% dialyzed fetal calf serum (Catalog No. 26400-044), 100 μg/ml penicillin and 100 μg/ml streptomycin. The cells were seeded at 5×10^4 cells/well in the poly-D-lysine treated, 96-well, black/clear-bottomed plates (Catalog No. BD356640, BD Biosciences, Palo Alto, Calif.). 24 h later, the cells were loaded for 1 h at 37° C. with 4 μM Flou-4 acetoxymethyl ester (Catalog No. F-14202, Molecular Probes, Eugene, Oreg.) in FLIPR buffer (1×HBSS, 20 mM HEPES, 2.5 mM Probenecid). Hanks' Balanced Salt Solution (HBSS) (10×) (catalog No. 14065-049) and HEPES (1M) (catalog No. 15630-056) were purchased from Invitrogen, Carlsbad, Calif. Probenecid (250 mM) (catalog No. P8761) was from Sigma, Buchs, Switzerland. The cells were washed five times with FLIPR buffer to remove excess dye and intracellular calcium mobilization, [Ca^2−]i were measured using a Fluorometric Imaging Plate Reader (FLIPR-96, Molecular Devices, Menlo Park, Calif.) as described previously (Malherbe et al., Mol. Pharmacol., 64, 823-832, 2003). Orexin A (catalog No. 1455, Toris Cookson Ltd, Bristol, UK) was used as agonist. Orexin A ([…] stock solution in DMSO) was diluted in FLIPR buffer+0.1% BSA. The EC50 and EC80 values of orexin-A were measured daily from standard agonist concentration-response curves in CHO(dHFr-)-OX1R and -OX2R cell lines. All compounds were dissolved in 100% DMSO. Inhibition curves were determined by addition of 11 concentrations (0.0001-10 μM) of inhibitory compounds and using EC80 value of orexin-A as agonist (a concentration which gave 80% of max agonist response, determined daily). The antagonists were applied 25 min (incubation at 37° C.) before the application of the agonist. Responses were measured as peak increase in fluorescence minus basal, normalized to the maximal stimulatory effect induced by EC80 value of orexin-A or orexin-B. Inhibition curves were fitted according to the Hill equation: y=100/(1+(x/IC50)^nH), where nH=slope factor using Excel-fit 4 software (Microsoft).
Kb values were calculated according to the following equation Kb=IC50/(1+[A]/EC50) where A is the concentration of agonist added which is very close to agonist EC80 value, and IC50 and EC50 values were derived from the antagonist inhibition and orexin-A or B agonist curves, respectively.
With `COc1cccc(OC)c1C(=O)N1CCC(Nc2nc3ccc(Cl)cc3o2)C1` (stereo not drawn) [Example 1, [3-(6-Chloro-benzooxazol-2-ylamino)-pyrrolidin-1-yl]-(2,6-dimethoxy-phenyl)-methanone], the Kb amounted to 0.0279 µM.

With `COc1cccc(OC)c1C(=O)N1CC[C@@H](Nc2nc3ccc(Cl)cc3o2)C1` [Example 5, [(R)-3-(6-Chloro-benzooxazol-2-ylamino)-pyrrolidin-1-yl]-(2,6-dimethoxy-phenyl)-methanone], the Kb stood at 0.0242 µM.

On to `COc1cccc(OC)c1C(=O)N1CCC(Nc2cnc3ccccc3n2)C1` (stereo not drawn) [Example 6, (2,6-Dimethoxy-phenyl)-[3-(quinoxalin-2-ylamino)-pyrrolidin-1-yl]-methanone], for which the Kb was 0.0104 µM.

In turn, `COc1cccc(OC)c1C(=O)N1CCC(Nc2nc3ccc(Cl)cc3s2)C1` (stereo not drawn) [Example 7, [3-(6-Chloro-benzothiazol-2-ylamino)-pyrrolidin-1-yl]-(2,6-dimethoxy-phenyl)-methanone] returned a Kb of 0.0228 µM.

`COc1cccc(OC)c1C(=O)N1CC[C@@H](Nc2cnc3ccccc3n2)C1` [Example 24, (2,6-Dimethoxy-phenyl)-[(R)-3-(quinoxalin-2-ylamino)-pyrrolidin-1-yl]-methanone] displayed an antagonist dissociation constant (Kb) of 0.0415 µM.

Turning to `COc1cccc(OC)c1C(=O)N1CC[C@@H](Nc2nc3ccc(Cl)cc3s2)C1` [Example 25, [(R)-3-(6-Chloro-benzothiazol-2-ylamino)-pyrrolidin-1-yl]-(2,6-dimethoxy-phenyl)-methanone], the Kb was 0.0163 µM.

In the case of `O=C(c1ccccc1-n1cccc1)N1CC[C@@H](Nc2nc3ccc(Cl)cc3o2)C1` [Example 28, [(R)-3-(6-Chloro-benzooxazol-2-ylamino)-pyrrolidin-1-yl]-(2-pyrrol-1-yl-phenyl)-methanone], the Kb was found to be 0.0096 µM.

Compound `O=C(c1c(Cl)cccc1Cl)N1CC[C@@H](Nc2nc3ccc(Cl)cc3o2)C1` [Example 33, [(R)-3-(6-Chloro-benzooxazol-2-ylamino)-pyrrolidin-1-yl]-(2,6-dichloro-phenyl)-methanone] displayed a Kb of 0.0354 µM.

With `Cc1cccc(Cl)c1C(=O)N1CC[C@@H](Nc2nc3ccc(Cl)cc3o2)C1` [Example 35, [(R)-3-(6-Chloro-benzooxazol-2-ylamino)-pyrrolidin-1-yl]-(2-chloro-6-methyl-phenyl)-methanone], the Kb came out at 0.045 µM.

As to `COc1cccc(OC)c1C(=O)N1CC[C@@H](Nc2cnc3cc(Cl)ccc3n2)C1` [Example 41, [(R)-3-(6-Chloro-quinoxalin-2-ylamino)-pyrrolidin-1-yl]-(2,6-dimethoxy-phenyl)-methanone], the Kb stood at 0.0302 µM.

Compound `COc1cccc(OC)c1C(=O)N1CC[C@@H](Nc2nc3c(Cl)cccc3s2)C1` [Example 43, [(R)-3-(4-Chloro-benzothiazol-2-ylamino)-pyrrolidin-1-yl]-(2,6-dimethoxy-phenyl)-methanone] came in with a Kb of 0.0015 µM.

On to `CCc1ccccc1C(=O)N1CC[C@@H](Nc2nc3ccc(Cl)cc3o2)C1` [Example 47, [(R)-3-(6-Chloro-benzooxazol-2-ylamino)-pyrrolidin-1-yl]-(2-ethyl-phenyl)-methanone], for which the antagonist dissociation constant (Kb) was found to be 0.0377 µM.

Compound `CCOc1ccccc1C(=O)N1CC[C@@H](Nc2nc3ccc(Cl)cc3o2)C1` [Example 52, [(R)-3-(6-Chloro-benzooxazol-2-ylamino)-pyrrolidin-1-yl]-(2-ethoxy-phenyl)-methanone] gave a Kb of 0.0249 µM.

For the compound `CSc1ccccc1C(=O)N1CC[C@@H](Nc2nc3ccc(Cl)cc3o2)C1` [Example 53, [(R)-3-(6-Chloro-benzooxazol-2-ylamino)-pyrrolidin-1-yl]-(2-methylsulfanyl-phenyl)-methanone], the Kb turned out to be 0.0299 µM.

Regarding `O=C(c1ccccc1OC(F)F)N1CC[C@@H](Nc2nc3ccc(Cl)cc3o2)C1` [Example 56, [(R)-3-(6-Chloro-benzooxazol-2-ylamino)-pyrrolidin-1-yl]-(2-difluoromethoxy-phenyl)-methanone], the Kb is 0.047 µM.

Compound `O=C(c1ccccc1-c1ccco1)N1CC[C@@H](Nc2nc3ccc(Cl)cc3o2)C1` [Example 57, [(R)-3-(6-Chloro-benzooxazol-2-ylamino)-pyrrolidin-1-yl]-(2-furan-2-yl-phenyl)-methanone] yielded a Kb of 0.0025 µM.

With `O=C(c1cnoc1-c1ccccc1)N1CC[C@@H](Nc2nc3ccc(Cl)cc3o2)C1` [Example 61, [(R)-3-(6-Chloro-benzooxazol-2-ylamino)-pyrrolidin-1-yl]-(5-phenyl-isoxazol-4-yl)-methanone], the Kb was 0.0054 µM.

Compound `O=C(c1ccccc1-c1ncn[nH]1)N1CC[C@@H](Nc2nc3ccc(Cl)cc3o2)C1` [Example 62, [(R)-3-(6-Chloro-benzooxazol-2-ylamino)-pyrrolidin-1-yl]-[2-(2H-[1,2,4]triazol-3-yl)-phenyl]-methanone] showed a Kb of 0.014 µM.

Take `O=C(c1ccccc1C(F)(F)F)N1CC[C@@H](Nc2nc3ccc(Cl)cc3o2)C1` [Example 63, [(R)-3-(6-Chloro-benzooxazol-2-ylamino)-pyrrolidin-1-yl]-(2-trifluoromethyl-phenyl)-methanone]: the Kb came out at 0.0219 µM.

As for `O=C(c1ccccc1-c1cccnc1)N1CC[C@@H](Nc2nc3ccc(Cl)cc3o2)C1` [Example 65, [(R)-3-(6-Chloro-benzooxazol-2-ylamino)-pyrrolidin-1-yl]-(2-pyridin-3-yl-phenyl)-methanone], the Kb was 0.0272 µM.

With `Cc1onc(-c2ccccc2)c1C(=O)N1CC[C@@H](Nc2nc3ccc(Cl)cc3o2)C1` [Example 67, [(R)-3-(6-Chloro-benzooxazol-2-ylamino)-pyrrolidin-1-yl]-(5-methyl-3-phenyl-isoxazol-4-yl)-methanone], the Kb amounted to 0.0051 µM.

The compound `Cc1ccc(C(F)(F)F)c(C(=O)N2CC[C@@H](Nc3nc4ccc(Cl)cc4o3)C2)c1` [Example 68, [(R)-3-(6-Chloro-benzooxazol-2-ylamino)-pyrrolidin-1-yl]-(5-methyl-2-trifluoromethyl-phenyl)-methanone] returned a Kb of 0.0018 µM.

For `Cc1noc(-c2ccccc2C(=O)N2CC[C@@H](Nc3nc4ccc(Cl)cc4o3)C2)n1` [Example 69, [(R)-3-(6-Chloro-benzooxazol-2-ylamino)-pyrrolidin-1-yl]-[2-(3-methyl-[1,2,4]oxadiazol-5-yl)-phenyl]-methanone], the Kb was 0.0155 µM.

Compound `O=C(c1ccccc1-c1cccs1)N1CC[C@@H](Nc2nc3ccc(Cl)cc3o2)C1` [Example 70, [(R)-3-(6-Chloro-benzooxazol-2-ylamino)-pyrrolidin-1-yl]-(2-thiophen-2-yl-phenyl)-methanone] yielded a Kb of 0.0024 µM.

`O=C(c1ccccc1OC(F)(F)F)N1CC[C@@H](Nc2nc3ccc(Cl)cc3o2)C1` [Example 71, [(R)-3-(6-Chloro-benzooxazol-2-ylamino)-pyrrolidin-1-yl]-(2-trifluoromethoxy-phenyl)-methanone] returned a Kb of 0.0097 µM.

On to `O=C(c1c(F)cccc1C(F)(F)F)N1CC[C@@H](Nc2nc3ccc(Cl)cc3o2)C1` [Example 72, [(R)-3-(6-Chloro-benzooxazol-2-ylamino)-pyrrolidin-1-yl]-(2-fluoro-6-trifluoromethyl-phenyl)-methanone], for which the Kb was found to be 0.0298 µM.

Consider `CCOc1cccc(OCC)c1C(=O)N1CC[C@@H](Nc2nc3ccc(Cl)cc3o2)C1` [Example 73, [(R)-3-(6-Chloro-benzooxazol-2-ylamino)-pyrrolidin-1-yl]-(2,6-diethoxy-phenyl)-methanone], for which the Kb is 0.0012 µM.

Values taken from US7897627B2, “Heteroaryl derivatives as orexin receptor antagonists” (Hoffmann-La Roche Inc., priority 2007, dated 2011).
